Patent US20140073634A1 (Institute For Applied Cancer Science/The University of …, priority 2012, published 2014)

Test system: 293T-HRE-GFP-luc cells
Assay: Cell-based reporter assay for IC50 determinations (HRE-luciferase, hypoxia)
Conditions: 6 h, 6 hrs hypoxia (1% O2), luminescence
Method: Cell-Based Reporter Assay for IC50 Determinations
293T-HRE-GFP-luc cells were routinely maintained in DMEM media (high glucose version with GlutaMAX and HEPES, Gibco, catalog #10564) supplemented with 10% fetal bovine serum and 2 μg/mL puromycin (Invitrogen, catalog #A11138-03) using a humidified incubator (normoxia conditions consisting of 37° C., 5% CO2 and ambient O2).
In preparation for the reporter assay, cells were harvested and resuspended in DMEM media (high glucose version with GlutaMAX and HEPES) supplemented with 10% fetal bovine serum. Cells were inoculated into 384-well white Culturplates (Perkin Elmer catalog #6007680) at a density of 12,000 cells/well in a volume of […]. The microplates were incubated overnight (approximately 17-19 hours) at 37° C. with 5% CO2 and ambient O2. Stock solutions of the test compounds were prepared in DMSO (Sigma, Catalog #D2650) and serially diluted 1:3 using DMSO. Compounds were additionally diluted (1:50) with culturemedium and 10 µL were added per well to the Culturplate. Following a 30 min. incubation under normoxia conditions, the plates were incubated in hypoxia for 6 hrs. (37° C., 5% CO2 and 1% O2). Steadylite Plus (Perkin Elmer, catalog #6016751) was then added ([…]), the plates were mixed on an orbital shaker at room temperature in the dark for 15 min., and luminescence was measured using an Envision plate reader (Perkin Elmer). IC50 values were calculated using a four-parameter logistic curve fit. Results are shown below in Table 2; ND indicates no data.

Row | Structure (SMILES) | IC50
1 | CN(C)C(=O)CCc1cccc(Cn2cc(-c3nc(-c4ccc(OC(F)(F)F)cc4)no3)ccc2=O)c1 [Example 49, N,N-Dimethyl-3-{3-[(2-oxo-5-{3-[4-(trifluoromethoxy)phenyl]-1,2,4-oxadiazol-5-yl}-1,2-dihydropyridin-1-yl)methyl]phenyl}propanamide] | < 100 nM
2 | CC(C)(O)c1cc(Cn2cc(-c3nc(-c4ccc(OC(F)(F)F)cc4)no3)ccc2=O)ccn1 [Example 50, 1-{[2-(2-Hydroxypropan-2-yl)pyridin-4-yl]methyl}-5-{3-[4-(trifluoromethoxy)phenyl]-1,2,4-oxadiazol-5-yl}-1,2-dihydropyridin-2-one] | 100 to 1000 nM
3 | COCCOc1cc(Cn2cc(-c3nc(-c4ccc(OC(F)(F)F)cc4)no3)ccc2=O)ccn1 [Example 51, 1-{[2-(2-Methoxyethoxy)pyridin-4-yl]methyl}-5-{3-[4-(trifluoromethoxy)phenyl]-1,2,4-oxadiazol-5-yl}-1,2-dihydropyridin-2-one] | 100 to 1000 nM
4 | C=Cc1cccc(Cn2cc(-c3nc(-c4ccc(OC(F)(F)F)cc4)no3)ccc2=O)c1 [Example 52, 5-(3-(4-(Trifluoromethoxy)phenyl)-1,2,4-oxadiazol-5-yl)-1-(3-vinylbenzyl)pyridin-2(1H)-one] | < 100 nM
5 | O=c1ccc(-c2nc(-c3ccc(OC(F)(F)F)cc3)no2)cn1Cc1cccc(C(O)CO)c1 (centres unmarked) [Example 53, 1-(3-(1,2-Dihydroxyethyl)benzyl)-5-(3-(4-(trifluoromethoxy)phenyl)-1,2,4-oxadiazol-5-yl)pyridin-2(1H)-one] | < 100 nM
6 | C=CCOc1cccc(Cn2cc(-c3nc(-c4ccc(OC(F)(F)F)cc4)no3)ccc2=O)c1 [Example 54, 1-(3-(Allyloxy)benzyl)-5-(3-(4-(trifluoromethoxy)phenyl)-1,2,4-oxadiazol-5-yl)pyridin-2(1H)-one] | < 100 nM
7 | O=c1ccc(-c2nc(-c3ccc(OC(F)(F)F)cc3)no2)cn1Cc1cccc(OCC(O)CO)c1 (centres unmarked) [Example 55, 1-(3-(2,3-Dihydroxypropoxy)benzyl)-5-(3-(4-(trifluoromethoxy)phenyl)-1,2,4-oxadiazol-5-yl)pyridin-2(1H)-one] | < 100 nM
8 | CC(C)=Cc1cccc(Cn2cc(-c3nc(-c4ccc(OC(F)(F)F)cc4)no3)ccc2=O)c1 [Example 56, 1-(3-(2-methylprop-1-enyl)benzyl)-5-(3-(4-(trifluoromethoxy)phenyl)-1,2,4-oxadiazol-5-yl)pyridin-2(1H)-one] | < 100 nM
9 | CC(C)(O)C(O)c1cccc(Cn2cc(-c3nc(-c4ccc(OC(F)(F)F)cc4)no3)ccc2=O)c1 (centres unmarked) [Example 57, 1-(3-(1,2-Dihydroxy-2-methylpropyl)benzyl)-5-(3-(4-(trifluoromethoxy)phenyl)-1,2,4-oxadiazol-5-yl)pyridin-2(1H)-one] | < 100 nM
10 | O=c1ccc(-c2nc(-c3ccc(OC(F)(F)F)cc3)no2)cn1Cc1cccc(N2CCC(O)CC2)c1 [Example 58, 1-(3-(4-Hydroxypiperidin-1-yl)benzyl)-5-(3-(4-(trifluoromethoxy)phenyl)-1,2,4-oxadiazol-5-yl)pyridin-2(1H)-one] | < 100 nM
11 | O=c1ccc(-c2nc(-c3ccc(OC(F)(F)F)cc3)no2)cn1Cc1cccc(N2CCNCC2)c1 [Example 59, 1-(3-(piperazin-1-yl)benzyl)-5-(3-(4-(trifluoromethoxy)phenyl)-1,2,4-oxadiazol-5-yl)pyridin-2(1H)-one] | < 100 nM
12 | O=C(CO)N1CCN(c2cccc(Cn3cc(-c4nc(-c5ccc(OC(F)(F)F)cc5)no4)ccc3=O)c2)CC1 [Example 60] | < 100 nM
13 | CS(=O)(=O)N1CCN(c2cccc(Cn3cc(-c4nc(-c5ccc(OC(F)(F)F)cc5)no4)ccc3=O)c2)CC1 [Example 61] | < 100 nM
14 | NCC(O)COc1cccc(Cn2cc(-c3nc(-c4ccc(OC(F)(F)F)cc4)no3)ccc2=O)c1 (centres unmarked) [Example 62, 1-(3-(3-Amino-2-hydroxypropoxy)benzyl)-5-(3-(4-(trifluoromethoxy)phenyl)-1,2,4-oxadiazol-5-yl)pyridin-2(1H)-one] | < 100 nM
